For 3 molecules, Iron output results are on record in ChEMBL document CHEMBL1125786, “Synthesis and biological evaluation of hydroxamate-based iron chelators” (1991).

Common to all, as to type: functional
For assay [1], the system named is Rattus norvegicus. The assay is described as follows: Total iron output induced by the compound in bile (non-iron-overloaded bile duct cannulated rat), after 21 hours of sc administration.
Assay [2] concerns Rattus norvegicus. The assay is described as follows: Total iron output induced by the compound in bile (non-iron-overloaded bile duct cannulated rat), after 9 hours of po administration.
For assay [3], the system named is Rattus norvegicus. The experiment in a line: Total iron output induced by the compound in bile (non-iron-overloaded bile duct cannulated rat), after 12 hours of po administration.
In assay [4] the test system is Rattus norvegicus. The assay is described as follows: Total iron output induced by the compound in non-iron-overloaded bile duct cannulated rat(Treated-control), after 24 hours of po administration.
The test system of assay [5] is Rattus norvegicus. The experiment in a line: Total iron output induced by the compound in bile (non-iron-overloaded bile duct cannulated rat), after 18 hours of po administration.
For assay [6], the system named is Rattus norvegicus. The assay is described as follows: Total iron output induced by the compound in bile (non-iron-overloaded bile duct cannulated rat), after 24 hours of sc administration.
Assay [7] deals with Rattus norvegicus. The assay is described as follows: Total iron output induced by the compound in urine (non-iron-overloaded bile duct cannulated rat), after 24 hours of po administration.
Assay [8] has as its system Rattus norvegicus. The assay is described as follows: Total iron output induced by the compound in bile (non-iron-overloaded bile duct cannulated rat), after 3 hours of po administration.
Assay [9] deals with Rattus norvegicus. The assay is described as follows: Total iron output induced by the compound in bile (non-iron-overloaded bile duct cannulated rat), after 12 hours of sc administration.
Assay [10] has as its system Rattus norvegicus. The assay is described as follows: Total iron output induced by the compound in bile (non-iron-overloaded bile duct cannulated rat), after 6 hours of po administration.
Assay [11] concerns Rattus norvegicus. The experiment in a line: Total iron output induced by the compound in bile (non-iron-overloaded bile duct cannulated rat), after 18 hours of sc administration.
Assay [12] has as its system Rattus norvegicus. The assay is described as follows: Total iron output induced by the compound in non-iron-overloaded bile duct cannulated rat, after 24 hours of sc administration.
Assay [13] concerns Rattus norvegicus. The experiment in a line: Total iron output induced by the compound in bile (non-iron-overloaded bile duct cannulated rat), after 15 hours of sc administration.
Assay [14] relates to Rattus norvegicus. The assay is described as follows: Total iron output induced by the compound in bile (non-iron-overloaded bile duct cannulated rat), after 21 hours of po administration.
Assay [15] relates to Rattus norvegicus. The experiment in a line: Total iron output induced by the compound in non-iron-overloaded bile duct cannulated rat, after 24 hours of po administration.
Assay [16] concerns Rattus norvegicus. The experiment in a line: Total iron output induced by the compound in bile (non-iron-overloaded bile duct cannulated rat), after 3 hours of sc administration.
Assay [17] relates to Rattus norvegicus. The assay is described as follows: Total iron output induced by the compound in bile (non-iron-overloaded bile duct cannulated rat), after 24 hours of po administration.
Assay [18] deals with Rattus norvegicus. The experiment in a line: Total iron output induced by the compound in bile (non-iron-overloaded bile duct cannulated rat), after 9 hours of sc administration.
In assay [19] the test system is Rattus norvegicus. The assay is described as follows: Total iron output induced by the compound in bile (non-iron-overloaded bile duct cannulated rat), after 15 hours of po administration.
Assay [20] relates to Rattus norvegicus. The assay is described as follows: Total iron output induced by the compound in bile (non-iron-overloaded bile duct cannulated rat), after 6 hours of sc administration.
Assay [21] deals with Rattus norvegicus. The experiment in a line: Total iron output induced by the compound in urine (non-iron-overloaded bile duct cannulated rat), after 24 hours of sc administration.
The test system of assay [22] is Rattus norvegicus. The assay is described as follows: Total iron output induced by the compound in non-iron-overloaded bile duct cannulated rat(Treated-control), after 24 hours of sc administration.

With `CC(=O)N(O)CCCCCNC(=O)CCC(=O)N(O)CCCCCNC(=O)CCC(=O)N(O)CCCCCN` [DEFEROXAMINE], the Iron output turned out to be 219.8 in assay [1]; 76.8 in [2]; 97.1 in [3]; 86.3 in assay [4]; 119.8 in [5]; 228.4 in assay [6]. The Iron output in assay [7] is listed as 16.5; in assay [8], 14.7; in assay [9] it was 173.9; in assay [10], 43.9; in assay [11] it was 210.7; in assay [12], 277.6. The Iron output came out at 196.2 in [13]; 128.7 in assay [14]; 151.5 in assay [15]; 43.6 in [16]; 135 in assay [17]; 152.8 in assay [18]. For the same molecule, the Iron output was found to be 110.8 in [19], 105.9 in assay [20], 49.2 in assay [21] and 212.4 in [22].

For `COCCOCCOCCN(O)C(=O)CCC(=O)NCCCCCN(O)C(=O)CCC(=O)NCCCCCN(O)C(C)=O`, the Iron output in assay [1] is 585.9; in assay [2], 56.8; in assay [3] it was 67.5; in [4] it was 43.5; in assay [5], 83.8; in [6], 599.5. In addition, the Iron output worked out at 15 in assay [7]; 20.2 in [8]; 456.1 in assay [9]; 42.8 in assay [10]; 561.2 in assay [11]; 667.9 in assay [12]. Further, the Iron output in assay [13] was found to be 519.6; in [14], 89; in assay [15] it was 108.7; in assay [16], 117.3; in assay [17], 93.7; in assay [18], 374.6. Also, the Iron output is 76.5 in assay [19], 262.5 in [20], 68.4 in assay [21] and 602.7 in assay [22].

As for `COCCOCCOCCN(O)C(=O)CCC(=O)NCCCCCN(O)C(=O)CCC(=O)NCCCCCN(O)C(=O)COCCOCCOC`, the Iron output in assay [1] was 534.2; in [2] it was 42.5; in assay [3] it was 59.7; in assay [4], 34.6; in assay [5] it was 74.6; in assay [6] it was 539.7. Also, the Iron output in assay [7] amounted to 13.3; in [8], 16.3; in assay [9], 467; in assay [10], 31.7; in [11], 526; in [12], 585. Besides, the Iron output in assay [13] is listed as 509.1; in assay [14], 81.3; in [15], 99.8; in assay [16], 106.9; in [17] it was 86.6; in assay [18], 362.6. Also, the Iron output in assay [19] came to 67.9; in [20] it was 244.4; in assay [21], 45.3; in assay [22], 519.8.
